Like-named read-outs stand apart in the source and are kept apart here.
Tests used:
LPA2 [1] = target: T1, LPA2 (Homo sapiens, UniProt Q9HBW0); assay: Ca2+ mobilization assay, antagonist activity at LPA2; format: cell-based; settings: for IC50: antagonism of 10 μM LPA, mean ± s.e.m.
T1 construct: expressed in transfected cells
Method: (§1) Cells stably expressing the corresponding LPA1–3 receptor were grown as described previously.[18] Changes in intracellular calcium levels were measured by using the fluorescent calcium sensitive dye Fluo-4 NW (Invitrogen). RH7777 cells or B103 cells were plated on poly-D-lysine or collagen coated, respectively, black-wall clear-bottom 96-well plates (Corning) at a density of 50 000 cells/well and cultured overnight. The culture medium was then replaced with 100 μL of Fluo-4 NW dye loading solution containing 2.5 μM of probenecid and incubated for 30 min at 37 °C followed by an additional 30 min at rt. […] Fluorescence changes were registered in a FluoStar Optima instrument (BMG Labtech) at 525 nm using an excitation wavelength of 494 nm. […] The data presented are from two to four independent experiments carried out in triplicate or quadruplicate. Dose–response curves were generated and IC50 values calculated by nonlinear regression analysis using Prism software version 5 (GraphPad Software Inc., San Diego, CA, USA).
Figure S2. Dose response curves for compounds 13, 44, 53, 54, and 55. B103 cells stably expressing LPA2 receptor were incubated with different concentrations of the compound under study and […]
Curves were generated with PRISM software version 5 (GraphPad Software Inc, San Diego, CA, USA) using nonlinear regression analysis. Each data point corresponds to the mean±SEM of two to four independent experiments carried out in triplicate or quadruplicate.

LPA3 [2] = target: T2, LPA3 (Homo sapiens, UniProt Q9UBY5); design: expressed in transfected cells; settings: cited from earlier work
T2 sequence (Q9UBY5 1-353): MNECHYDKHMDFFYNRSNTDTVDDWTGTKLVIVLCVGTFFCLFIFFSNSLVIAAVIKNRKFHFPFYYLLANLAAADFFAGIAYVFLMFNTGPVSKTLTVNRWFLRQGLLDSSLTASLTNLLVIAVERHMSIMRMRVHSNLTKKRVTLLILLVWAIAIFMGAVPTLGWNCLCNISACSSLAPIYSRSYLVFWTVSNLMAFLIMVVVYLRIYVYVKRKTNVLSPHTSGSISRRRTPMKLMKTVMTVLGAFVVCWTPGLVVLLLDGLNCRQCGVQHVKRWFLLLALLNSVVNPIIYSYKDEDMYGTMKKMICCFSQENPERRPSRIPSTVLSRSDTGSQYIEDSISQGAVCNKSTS

LPA2 [3] = target: T1, LPA2; assay: Ca2+ mobilization assay, agonist activity at LPA2; format: cell-based; settings: 10 μM compound
Method: The agonist activity at LPA2 receptors was determined at 10 μM concentration for all final compounds as previously described.[18]
Figure S1. Representative snapshots showing the lack of significant agonist activity of selected compounds. (A) 1; (B) 13; (C) 54; and (D) Ki16425. (E) Graphs show the agonist activity induced […]
stably expressing LPA2 receptor were plated on collagen-coated black-wall clear-bottom 96-well plates (Corning) at a density of 50000 cells/well and cultured overnight. The culture medium was then replaced with Fluo-4 NW dye loading solution containing 2.5 µM of probenecid and incubated […]
for 30 minutes at 37 °C followed by an additional 30 minutes at rt. Fluorescence changes were registered in a FluoStar Optima instrument (BMG Labtech) at 525 nm using an excitation wavelength of 494 nm. Each well was monitored for 240 s. 20 µL of the test compound from a 6x stock solution in assay buffer were added after 120 s of starting the measurement. Ca2+ transient increase was quantified by calculating the difference between maximum and baseline values for each […]
Graphs shown are representative of two to three independent experiments.

LPA1 [4] = target: T3, LPA1 (Homo sapiens, UniProt Q92633); assay: cell-based; design: Emax: dose or concentration left out as unconfirmed
T3 sequence (Q92633 whole entry, species assumed): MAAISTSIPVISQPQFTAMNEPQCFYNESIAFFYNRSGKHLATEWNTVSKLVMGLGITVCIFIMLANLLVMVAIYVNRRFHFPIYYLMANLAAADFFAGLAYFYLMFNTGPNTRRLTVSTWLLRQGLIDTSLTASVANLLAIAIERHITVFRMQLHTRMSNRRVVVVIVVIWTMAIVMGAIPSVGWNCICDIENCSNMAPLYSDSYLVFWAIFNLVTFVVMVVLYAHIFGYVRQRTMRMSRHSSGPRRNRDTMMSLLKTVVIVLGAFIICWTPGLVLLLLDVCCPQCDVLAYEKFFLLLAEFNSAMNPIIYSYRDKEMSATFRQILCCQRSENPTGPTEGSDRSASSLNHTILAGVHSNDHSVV
Method: as §1

LPA2 [5] = target: T1, LPA2; settings: cited from earlier work
LPA1 [6] = target: T3, LPA1; design: expressed in transfected cells; settings: cited from earlier work
LPA3 [7] = target: T2, LPA3; assay: cell-based
Method: as §1

[8] = Metabolic stability in human liver microsomes; format: in vitro ADME; settings: male, liver microsomes (pooled), 1 mg/mL protein, NADPH, 37 °C, read-out: stability (t1/2, min) HLMs
Method: (§2) Reactions were initiated by the addition of a suspension of mouse liver microsomes (MLMs) (male CD-1 mice pooled, Sigma-Aldrich) or human liver microsomes (HLMs) (male human pooled, Sigma-Aldrich), respectively, at a final protein concentration of 1 mg/mL. […] Aliquots of 100 μL were quenched at time zero and at seven points ranging to 2 h (MLM) or 4 h (HLM) by pouring into 100 μL of ice-cold acetonitrile. […] The relative disappearance of the compound under study over the course of the incubation was monitored by HPLC-MS using SIM mode. Concentrations were quantified by measuring the area under the peak ([M + H]^+) normalized with an internal standard and converted to the percentage of compound remaining, using the time zero peak area value as 100%. The natural logarithm of the remaining percentage versus time data for each compound was fit to a linear regression, and the slope was used to calculate the degradation half-life (t1/2).

[9] = Metabolic stability in mouse liver microsomes; format: in vitro ADME; settings: male, CD-1, mouse, liver microsomes (pooled), 1 mg/mL protein, NADPH, 37 °C, read-out: stability (t1/2, min) MLMs
Method: as §2

[10] = Parallel artificial membrane permeability assay (PAMPA); format: in vitro ADME; settings: PBS pH 7.4, 5 h, rt
Method: These studies were carried out as previously described with minor modifications.[41],[42] The assessment of the membrane permeability of synthesized compounds and propranolol and metoprolol as reference compounds was performed in a commercially available 96-well Corning Gentest precoated PAMPA plate system (Cultek S.L.U., Spain). Prior to use, the precoated PAMPA plate system was warmed to rt for 30 min and 300 μL of 200 μM solution of tested compound in 2% DMSO in PBS (pH 7.4) were added into wells in the receiver (donor) plate. Then, 200 μL of PBS were added into wells in the filter (acceptor) plate. The filter plate was placed on the receiver plate by slowly lowering the precoated PAMPA plate until it sits on the receiver plate. The assembly was incubated at rt for 5 h, and then buffer samples were collected carefully from each plate. The final concentrations of compound in both donor and acceptor wells were analyzed by HPLC-MS and quantification was estimated by using the peak area integration normalized with an internal standard. Permeability value of the compounds was calculated using the following formula: P (cm/s) = {−ln[1 – CA(t)/Ceq]}/[A(1/VD + 1/VA)t], where A = filter area (0.3 cm^2), VD = donor well volume (0.3 mL), VA = acceptor well volume (0.2 mL), t = incubation time (s), CA(t) = compound concentration (μM) in the acceptor well at time t, CD(t) = compound concentration (μM) in donor well at time t, and Ceq = [CD(t)VD + CA(t)VA]/(VD + VA). Assays were performed in duplicate, and the compound was tested in two different plates on different days.

[11] = maximum blockade of activation induced by 10 μM LPA (18:1) at 10 μM compound, N.E. = no effect at 10 μM

T1 sequence (Q9HBW0 whole entry, species assumed): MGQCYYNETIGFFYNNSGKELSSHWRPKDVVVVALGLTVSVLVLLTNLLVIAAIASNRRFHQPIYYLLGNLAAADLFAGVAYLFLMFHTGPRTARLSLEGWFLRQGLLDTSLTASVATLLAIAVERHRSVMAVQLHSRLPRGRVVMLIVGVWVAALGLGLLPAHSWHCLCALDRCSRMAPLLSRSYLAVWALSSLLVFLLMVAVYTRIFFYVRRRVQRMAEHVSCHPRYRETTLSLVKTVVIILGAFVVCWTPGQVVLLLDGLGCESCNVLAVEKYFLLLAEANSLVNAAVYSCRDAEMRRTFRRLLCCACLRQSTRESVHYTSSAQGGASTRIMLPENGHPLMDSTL

Cc1noc(-c2ccc(CSCCC(=O)O)cc2)c1NC(=O)OC(C)c1ccccc1Cl (centres unmarked) [Ki16425, reference compound]
Emax at 10 µM (LPA2 [1]): 92 ± 3% | IC50 (LPA2 [1]): 1.2 µM | IC50 (LPA3 [2]): 930 nM | agonist activity at LPA2 receptor (LPA2 [3]): lack | Emax (LPA1 [4]; read-out: Emax (%) LPA1): 97 ± 4% | IC50 (LPA1 [4]; read-out: IC50 (μM) LPA1, antagonism of 10 μM LPA, mean ± s.e.m.): 0.8 µM | IC50 (LPA2 [5]): 6500 nM | IC50 (LPA1 [6]): 340 nM | Emax (LPA3 [7]; read-out: Emax (%) LPA3): 99 ± 3% | IC50 (LPA3 [7]; read-out: IC50 (μM) LPA3, antagonism of 10 μM LPA, mean ± s.e.m.): 1.6 µM

Cc1[nH]nc(-c2ccc(OCC(=O)O)cc2O)c1Oc1ccc(Cl)cc1Cl [Compound 13, {4-[4-(2,4-Dichlorophenoxy)-5-methyl-1H-pyrazol-3-yl]-3-hydroxyphenoxy}acetic Acid]
Emax at 10 µM (LPA2 [1]): 84 ± 3% | IC50 (LPA2 [1]): 5.5 µM | half-life at 5 μM [8]: ~60 min | half-life at 1 μM [9]: ~16 min | P (cm/s), permeability value ([10]; 200 μM): 0.1 × 10^–6 cm/s | Papp at 5 h, 200 μM ([10]; pH 7.4, PAMPA, read-out: P (cm/s), permeability value): 0.11 ×10⁻⁶ cm/s | agonist activity at LPA2 receptor (LPA2 [3]): lack | Emax (%) LPA1 (LPA1 [4]; [11]): N.E. and N.E. ^c | melting point: > 196 °C (dec.) | Emax (%) LPA3 (LPA3 [7]; [11]): N.E.
